Here are results for one molecule from publication PMC6270263, “Factors Influencing the Antifolate Activity of Synthetic Tea-Derived Catechins” (Molecules, 2013).

Read-outs that look alike come from different tables or passages of the source.

In data set [1] the test system is SK-MEL-28 melanoma cell line. As to the kind of experiment: MTT cell proliferation assay in melanoma cells. It is filed as cell-based, human. Conditions: Homo sapiens, SK-MEL-28, 144 h, SK-MEL-28, after 6 days of treatment; read-out: Half-maximal inhibitory concentration (IC50). From the text:
Antifolate compounds are designed to inhibit DHFR and act specifically during DNA and RNA synthesis, making them more toxic to rapidly dividing cells. Recent evidences indicate that tea-catechins and derived compounds could inhibit DHFR and block the folate cycle in cancer cells. Although inhibition of DHFR by these compounds could be a plausible explanation for their antifolate activity, the possibility of these compounds targeting (folate)-enzymes other than DHFR could not be excluded. To determine whether these newly synthetized compounds disrupt the folate cycle in cell culture, we studied their antiproliferative activity in the melanoma cell line SK-MEL-28 (Table 3). Concentration- and time-dependent effects were analyzed using the colorimetric 4,5-(3)-dimethylthiazol-2-yl)-2,5-diphenyltetrazolium bromide (MTT) method.
The human melanoma cell line SK-MEL-28 was obtained from American Type Culture Collection (ATCC, Manassas, VA, USA) and was maintained in Eagles’s Minimum Essential Medium (EMEM) supplemented with 10% (v/v) FBS and antibiotics at 37 °C in a humidified atmosphere containing 7.5% CO2. Cell viability was evaluated using the MTT cell proliferation assay. Cells were evaluated for apoptosis using a cell death detection ELISA (Cell Death Detection ELISAPLUS, Roche Diagnostics, Barcelona, Spain). The principle of this test is the detection of mono- and oligonucleosomes in the cytoplasmic fractions of cell lysates using biotinylated anti-histone and peroxidase-coupled anti-DNA antibodies. The amount of nucleosomes is photometrically quantified at 405 nm by the peroxidase activity retained in the immunocomplexes. Apoptosis was defined as the specific enrichment of mono- and oligonucleosomes in the cytoplasm and was calculated by dividing the absorbance of treated samples with the absorbance of untreated samples after correcting for the number of cells. The induction of apoptosis in each melanoma cell line after a 7 h treatment with 2 μM staurosporin (100% apoptotic cells) was used to calculate the number of apoptotic cells. For these assays, cells were plated in a 96-well plate at a density of 1000–2000 cells/well. Compounds were added once at the beginning of the experiments.

Data set [2] has as its target T1, free recombinant human DHFR (rHDHFR) (Homo sapiens, UniProt P00374).
T1 construct: made in house; host or cells: Bombyx mori chrysalides
T1 sequence (P00374 1-187): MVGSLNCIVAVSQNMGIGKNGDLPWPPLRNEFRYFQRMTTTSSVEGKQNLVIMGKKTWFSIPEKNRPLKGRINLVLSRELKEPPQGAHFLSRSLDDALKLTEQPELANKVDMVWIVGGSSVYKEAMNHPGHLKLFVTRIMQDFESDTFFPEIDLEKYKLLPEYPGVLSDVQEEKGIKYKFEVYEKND
As to the kind of experiment: Binding of polyphenols to free rHDHFR by fluorescence quenching titration. The protocol: Natural and synthetic derivatives of tea catechins have shown to be good inhibitors of human DHFR [7, 11, 16, 18]. To determine the ability of natural and synthetic polyphenols to bind DHFR, we performed a structure-activity study by analyzing the binding of these polyphenols to DHFR using fluorescence quenching. Effective binding to free recombinant human DHFR (rHDHFR) was determined by measuring the decrease in enzyme fluorescence that occurs upon the formation of the enzyme-inhibitor complex. […] The dissociation constants of the synthetic compounds were on the same order as those of the natural analogues, indicating the high DHFR binding capacities of these new derivatives.
The dissociation constants for the binding of polyphenols to free recombinant human DHFR (rHDHFR) were determined by fluorescence titration in an automatic-scanning FluoroMax-3 (Jobin Ybon, Horiba, Edison, NJ, USA) spectrofluorometer with 1.0 cm light path cells and a 150 W mercury-xenon light source. The formation of a binary complex between the enzyme (2.5 × 10^−7 M) and the ligand (from 0 to 40 µM) was followed by measuring the quenching of the tryptophan fluorescence of the enzyme upon the addition of microliter volumes of a concentrated stock solution of ligand. Experiments were performed at pH 7.5 in a buffer containing 2-(N-morpholino)ethanesulfonic acid (Mes, 0.025 M), sodium acetate (0.025 M), tris(hydroxymethyl)aminomethane (Tris 0.05 M), and NaCl (0.1 M). The temperature was controlled at 25 °C using a Haake D1G circulating bath with a heater and cooler. Fluorescence emission spectra were recorded when the human DHFR fluorescence was excited at 290 nm, and titrations were performed as described elsewhere.

Data set [3] is described as follows: UV-visible absorption spectra at different pH (ionization state). It is filed as physicochemical. Conditions: UV-visible spectra; pH range 5.0–9.0 for TMCG and TMECG. The protocol:
It has been shown that the protonation state of methotrexate, trimethoprim, and pyrimethamine modulates the binding of these antifolates to DHFRs from several sources. […] The absorbance maximum at 278 nm undergoes a bathochromic displacement to 328 nm, which is greatest at alkaline pH (pH > 9.0).
To determine if the spectral changes in the SYCG and SYECG solutions with pH were due to an irreversible oxidation reaction or to a reversible protonation step, a pH titration experiment was carried out. An alkaline solution of SYCG and SYECG (pH 8.5) was acidified to pH 2.5 by the addition of dilute HCl. A change in the spectra was observed, indicating a reversible protonation reaction. The spectral changes with pH observed in SYCG and SYECG can be attributed to the hydroxyl group para on the ester-bonded gallate moiety. At acidic pH, these derivatives are mainly present as protonated species, whereas at basic pH or values near neutrality, these derivatives evolve toward the deprotonated species, which are stabilized by resonance (Scheme 3). […] As described, an important factor that decreases catechin bioavailability might be their inability to easily cross cellular membranes by passive diffusion. The presence of several hydroxyl groups in these molecules gives them a high hydrophilic character, which increases the difficulty of passing across lipid membranes.
Ultraviolet-visible absorption spectra of catechins at different pHs were recorded on a UV-Vis Perkin-Elmer Lambda-2 spectrophotometer with a spectral bandwidth of 1 nm at a scan speed of 60 nm s^−1. The experiments were performed in the same buffer as described for DHFR binding studies, and the ionic strength remained constant at an optimum value of 0.15 over the pH range that was used. The pH of the reaction was measured before and after the experiment.

For `COc1cc(C(=O)O[C@H]2Cc3c(O)cc(O)cc3O[C@@H]2c2ccc(O)c(O)c2)cc(OC)c1OC` [TMCG], in data set [1], the IC50 was found to be 1500 ± 400 nM. The Kd was 900 nM in data set [2] (Table 2, restates Table 1, read-out: KD, order of binding strengths to rHDHFR depending on D-ring substitution) and 900 ± 100 nM in data set [2] (pH 7.5, 25 °C, fluorescence titration, read-out: Dissociation constant KD of free rHDHFR). Further, the “Effect of pH on absorption spectra” value in data set [3] was “no significant changes”.

A word on the Kd: it is the equilibrium constant for the complex coming apart.
